From US20050163876A1, “Cancer treatment using natural plant products or essential oils or components from some pistacia species” (DATA MEDICA PADOVA S.p.A., priority 2003, published 2005)

Experiments:
LoVo cells = test: Pearson correlation between oil components and cytotoxic activity; design: species or system human; conditions: P. lentiscus oils / LoVo cells
Description: The Pearson correlation and linear regression analyzes between the oil components and biological activity was also determined. To the scope all data were collected in a data base and analysed by the GraphPad Prism Version 3.0 statistical software to identify substances directly responsible of biological activity.

[1] = system: transplanted hamster pancreatic tumors; conditions: cited from earlier work

Structure (SMILES)	Pearson correlation r between oil component and cytotoxic activity (LoVo cells)	growth of transplanted tumors relative to controls [1]
CC(=O)OC1CC2CCC1(C)C2(C)C (stereo not shown) [Bornyl Acetate]	0.8693	–
C=C1CC[C@H]2O[C@]2(C)CC[C@@H]2[C@@H]1CC2(C)C [Caryophyllene Oxide]	0.8355	–
Cc1ccc(C(C)C)cc1 [Para cymene, Para Cymene]	−0.8621	–
C=C(C)[C@@H]1CC=C(CO)CC1 [perillyl alcohol]	–	less than half that of controls
